Patent US20120157401A1, “METHODS FOR TREATING NEUROFIBROMATOSIS” (PTC Therapeutics, Inc., priority 2009, published 2012)

What was measured:
HT1080 xenografts = assay: HT1080 xenograft dose response: tumor growth; assay type: in vivo, athymic nude mice; details: 18 days
Experimental: Experimental Study Design. HT1080 cells (5×10^6 cells/mouse) were implanted subcutaneously in male athymic nude mice.
Tumor size was measured using calipers at periodic intervals during the study (data shown in Section 9.2.2). […] The study was ended after 18 days, when the vehicle treated tumors reached a mean volume of ˜1755 mm^3. […] Mice were sacrificed, and excised tumors were homogenized in buffer containing protease inhibitors. Both terminal intratumoral and pathologic plasma human VEGF levels were measured using an ELISA that recognizes human VEGF121 and VEGF165 (as described in Section 9.1.1.1). Intratumoral VEGF levels were normalized to the total tumor protein concentration, while pathologic plasma human VEGF levels were expressed in pg/mL of plasma.
Experimental Design. The experimental design was reported in Section 9.1.2.2.

CYP1A2 = target: T1, CYP1A2 (Homo sapiens, UniProt P05177); assay: CYP inhibition: CYP1A2; assay type: in vitro ADME; details: human hepatic microsomes or recombinant isoenzymes
T1 construct: host or cells: human hepatic microsomes or recombinant isoenzyme (not distinguished)
T1 sequence (P05177 whole entry): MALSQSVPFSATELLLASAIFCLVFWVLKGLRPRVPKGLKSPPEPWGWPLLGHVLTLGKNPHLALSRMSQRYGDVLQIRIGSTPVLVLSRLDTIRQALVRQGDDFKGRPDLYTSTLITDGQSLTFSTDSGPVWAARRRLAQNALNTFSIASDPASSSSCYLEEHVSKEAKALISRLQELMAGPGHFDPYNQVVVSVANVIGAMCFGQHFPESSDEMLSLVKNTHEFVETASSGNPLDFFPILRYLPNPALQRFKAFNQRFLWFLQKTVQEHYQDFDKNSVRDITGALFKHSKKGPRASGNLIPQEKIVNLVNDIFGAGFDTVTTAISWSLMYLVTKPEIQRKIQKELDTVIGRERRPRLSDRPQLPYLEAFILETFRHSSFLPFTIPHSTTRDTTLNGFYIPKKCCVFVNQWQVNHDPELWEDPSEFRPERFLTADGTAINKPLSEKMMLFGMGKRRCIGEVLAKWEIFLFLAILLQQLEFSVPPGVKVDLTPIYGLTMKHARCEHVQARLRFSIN
Text: It is possible that in certain clinical trial subjects, such agents may need to be adjusted for dosing or replaced by alternative agents that are not metabolized by CYP2D6, particularly when such agents may have a low therapeutic index.

[1] = tested on: SY5Y orthotopic xenografts; assay: Orthotopic SY5Y neuroblastoma tumor model (kidney capsule): tumor weight; assay type: in vivo
Text: Experimental Design. In orthotopic tumor models, human tumor cells are implanted into the mouse in an organ that corresponds to the location from which the tumors arise. Such models may provide a better predictor of clinical efficacy than injection of tumors into the flanks of nude mice. See Hoffman, Invest. New Drugs 1999, 17(4):343-59. SY5Y neuroblastoma or SKNEP Ewing sarcoma tumor cells (1×10^6 cells/mouse) were implanted into the kidney capsule of female athymic nude mice according to published methods. See Huang et al., Proc. Natl. Acad. Sci. USA 2003, 100(13):7785-90. One week after implantation of each type of tumor, mice were divided into 2 groups and were administered a test Compound as shown in Table 21.
After 5 weeks of treatment, the mice were sacrificed, and the weights of the tumors were assessed.

[2] = 28-day oral toxicity study in rats (14-day recovery); assay type: in vivo
Experimental: (§1) A battery of genotoxicity studies was also performed. […] The L23 vehicle was used.
Exposures were maximal at 120 mg/kg/day.

[3] = tested on: bacterial reverse mutation; assay: Bacterial reverse mutation study; assay type: cell-based; details: with and without metabolic activation
Experimental: Genotoxicity was assessed in a battery of in vitro and in vivo studies that included a bacterial reverse mutation study, a chromosome aberration study in Chinese hamster ovary (CHO) cells, and a micronucleus study in rats by the oral route. The in vitro studies were performed in the presence and absence of an exogenous metabolic activation system.

[4] = Patients: hearing function (word recognition, pure tone threshold, BAER); assay type: in vivo, human
Text: Hearing function: Assessments of word recognition and pure tone thresholds may be direct measures of patient functioning that define symptomatic consequences of the presence of VS (see, e.g., Halpin et al., Otol Neurotol., January 2006, 27(1):110-6). Standard clinical criteria for definition of hearing response (H-R) based on a 50-word hearing test (see, e.g., Thornton et al., J. Speech Hear. Res., September 1978, 21(3): 507-18) can be employed for word recognition tests.
Hearing Tests. Subjects may undergo hearing tests at screening, and at various times during the treatment protocol. Hearing assessment may be determined in standard clinical fashion and may include:
Determination of word recognition scores using a standardized list of test words, i.e., the 50-item Central Institute for the Deaf [CID] list W-22, recorded) (Thornton et al., J. Speech Hear Res., September 1978, 21(3): 507-18);
Pure-tone averages calculated as the average of the pure-tone thresholds at 500, 1000, 2000, and 3000 Hz;
Brainstem auditory evoked response (BAERs) reported as the latency of wave V, if present; and […]

[5] = 28-day oral toxicity study in dogs (15-day recovery)
Experimental: The L23 vehicle was used. […] All studies in the toxicology program were conducted according to GLP regulations.

[6] = 7-day oral toxicity study in dogs; assay type: in vivo
[7] = tested on: soluble VEGF121 and VEGF165 isoforms; assay: ELISA of soluble VEGF121/165 production in HeLa cells during hypoxia or normoxia; assay type: cell-based, human; details: 48 hours
Experimental: Experimental Design. HeLa (human cervical carcinoma) cell cultures were established under normoxic conditions (21% oxygen). HeLa cells increase VEGF production 4- to 5-fold in response to hypoxia. […] At the completion of treatment, the conditioned media were collected and the VEGF protein levels were assayed in an enzyme-linked immunosorbent assay (ELISA) with primary antibodies that recognize the soluble VEGF121 and VEGF165 isoforms (R & D Systems, Minneapolis, Minn., USA). To ensure that decreases in VEGF concentration were not due to cytotoxicity, cultures were assayed using a standard assay ([…]-GLO® Luminescent Cell Viability Assay; Promega, Madison, Wis., USA) that measures total cellular adenosine triphosphate (ATP) concentrations as an indicator of cell viability.

HT1080 cells = assay: Cell cycle analysis by propidium iodide flow cytometry in HT1080 cells (percent cells in S-phase, Table 24); assay type: cell-based, human; details: HT1080, normoxic, 18 hours
Experimental: Experimental Design. […] After treatment, cells were trypsinized, and stained with propidium iodide (PI) dye to measure DNA content of individual cells by flow cytometry. Output comprised histograms showing relative DNA content in 10,000 cells.
While compounds which cause greater than 20% of the cells to accumulate in S-phase at 100 nM are considered active, a larger percentage of cells may be accumulated in S-phase at lower doses depending on the Compound, as shown in FIG. 12 for example.

tumor VEGF = assay: Tumor VEGF content ELISA in microvessel density study, HT1080 xenografts; assay type: in vivo, human; details: racemic mixture, 5 mg/kg of Compound #10 oral BID, 10 days
Experimental: Experimental Design. HT1080 cells (5×10^6 cells/mouse) were implanted subcutaneously in male athymic nude mice.
At the end of treatment, the mice were sacrificed. Excised tumors were assayed by ELISA for VEGF content as described in Section 9.1.1.1, and were sectioned and immunostained with an anti murine CD31 antibody that is specific for endothelial cells.

[8] = Single-dose oral toxicity study in rats; assay type: in vivo
Experimental: as §1
Because maximal exposure occurred at 100 mg/kg, this dose is considered the NOAEL for 1 day of dosing.

For `COc1ccc(C2c3[nH]c4ccc(Cl)cc4c3CCN2C(=O)Oc2ccc(Cl)cc2)cc1` (racemic) [Compound #10], the “Toxicity on observing the animals” value (HT1080 xenografts; HT1080 xenograft mice) was “no overt toxicity”, the “Dose levels at which maximum antitumor activity was observed” value (HT1080 xenografts; HT1080 xenografts) was no less than 1 mg/kg BID and the “Inhibition of CYP1A2” value (CYP1A2) was “No meaningful inhibition”. The “Growth of orthotopic SY5Y tumors (tumor weight)” value ([1]; 5 weeks of treatment) was “completely prevented growth”, the “Toxicity on observing the animals” value ([1]; orthotopic SKNEP and SY5Y mice) was “no evidence of toxicity” and the “NOAEL for 28-days” value [2] was 12 mg/kg/day. The “Dose of maximal exposures” value ([2]; 28-day oral gavage) was 120 mg/kg/day, the Adrenal weights ([2]; 28-day, all dose levels) was “Increased” and the “Genotoxic effects, bacterial reverse mutation” value [3] was “no evidence of genotoxic effects”. The “Hearing function in patients (FIG. 39)” value [4] was “stabilized hearing function”, the “Dose of maximal exposures” value [5] was 30 mg/kg/dose BID and the “Target organ of toxicity” value ([5]; high dose) was “small intestine”. The “Dose of maximal exposures” value ([6]; 7 consecutive days) was 30 mg/kg/dose BID, the Treatment-related clinical findings ([6]; 7 days, males and females) was “increased incidence and frequency of soft stools” and the “Inhibition of stress-induced VEGF production (FIG. 25)” value ([7]; hypoxia-induced) was “inhibit stress-induced VEGF production”. For the same compound, the “Maximal decrease in VEGF concentration in conditioned media” value ([7]; hypoxic (1% oxygen)) was 87%, the “Mean VEGF concentration in conditioned media at maximal decrease” value ([7]; hypoxic (1% oxygen)) was 175 pg/mL and the “Decrease in VEGF concentration in conditioned media” value ([7]; normoxic) was 39%. The “Mean VEGF concentration in conditioned media in the presence of compound” value ([7]; normoxic) was 157 pg/mL, the “Concentration from which accumulation of cells in S phase is observed” value (HT1080 cells) was no less than 1 nM and the “Effect on cell cycle distribution (FIG. 12, FIG. 24)” value (HT1080 cells; Compound #10 0.3-100 nM, Compound 1205 10 nM) was “induced a redistribution of the cycling characteristics”. The “Mean inhibition of tumor VEGF concentration” value (tumor VEGF) was 95%, the “Dose of maximal exposure” value ([8]; Sprague Dawley, rat, in vivo, po, 1 day) was 100 mg/kg and the NOAEL at 1 day ([8]; Sprague Dawley, rat, in vivo, rats, single oral gavage, read-out: NOAEL for 1 day of dosing) was 100 mg/kg. The “Clinical or clinical pathological toxicities” value ([8]; rats, single oral 100, 200, or 400 mg/kg) was “no notable clinical or clinical pathological toxicities”.
